Laboratory results: US20220354929A1, “PEPTIDES AND USES THEREOF” (LATERAL IP PTY LTD, priority 2019, published 2022)
Values joined by “and” are separate entries in the source; they are usually repeats but may differ in a detail not shown here. Equal entries are not always repeated. “Also recorded” adds a separate entry of the source.

Key:
[1] = test system: dorsal root afferent-mediated synaptic inputs to dorsal horn neurones; assay: whole-cell recording in spinal cord slices from Chung models: dorsal root afferent-mediated synaptic inputs (evoked EPSPs/IPSPs); assay type: cell-based, rat; details: peptide 5 μM; dorsal root stimulation 0.1 Hz
Method: (§1) An in vitro spinal cord slice with intact dorsal root afferents combined with single-cell whole-cell patch clamp electrophysiological recording techniques was used to assess the electrophysiological properties of the peptides having the amino acid sequence of SEQ ID NO:2, 3, 4 and 5.
(§2) Chung model rats, aged 8 to 12 weeks, were housed in an air-conditioned room on a 12 hour light/dark cycle with food and water available ad libitum. The rats were terminally anaesthetized using isofluorane and decapitated. The vertebral column, rib cage and surrounding tissues were rapidly removed and pinned under ice-cold (<4° C.), high sucrose-containing artificial cerebrospinal fluid (aCSF) comprising: 127 mM sucrose, 1.9 mM KCl, 1.2 mM KH2PO4, 0.24 mM CaCl2, 3.9 mM MgCl2, 26 mM NaHCO3, 10 mM D-glucose and 0.5 mM ascorbic acid. A laminectomy was performed and the spinal cord and associated roots gently dissected and teased out of the spinal column and surrounding tissues. Dura and pia mater and ventral roots were subsequently removed with fine forceps and the spinal cord hemisected. Care was taken to ensure dorsal root inputs to the spinal cord were maintained. The hemisected spinal cord-dorsal root preparations were secured to a tissue slicer and spinal cord slices (400 to 450 μm thick) with dorsal roots attached were cut in chilled (<4° C.) high sucrose aCSF using a Leica VT1000s microtome.
(§3) Slices were transferred to a small beaker containing ice cold aCSF with 127 mM NaCl, 1.9 mM KCl, 1.2 mM KH2PO4, 1.3 mM MgCl2, 2.4 mM CaCl2, 26 mM NaHCO3 and 10 mM D-glucose, and rapidly warmed to 35° C. ±1° C. in a temperature-controlled water bath over a 20 minute period, then subsequently removed and maintained at room temperature (22° C. ±2° C.) prior to electrophysiological recording. Electrophysiological recording was performed in aCSF comprising 127 mM NaCl, 1.9 mM KCl, 1.2 mM KH2PO4, 1.3 mM MgCl2, 2.4 mM CaCl2, 26 mM NaHCO3 and 10 mM D-glucose.
Whole-cell recordings were performed at 34-35° C. from Lamina I or II neurones in the dorsal horn of the spinal cord slices using Axopatch 1D and/or Multiclamp 700B amplifies and using the “blind” version of the patch-clamp technique.
Patch pipettes were pulled from thin-walled borosilicate glass with resistances of between 3 and 8 MS2 when filled with intracellular solution (140 mM potassium gluconate, 10 mM KCl, 1 mM EGTA-Na, 10 mM HEPES, 4 mM Na2ATP, 0.3 mM Na-GTP). The peptides of SEQ ID NOs:2, 3, 4 or 5 (LAT7771, LAT7772, LAT7773 or LAT7774) were diluted in the tissue bath at a concentration of 5 μM.
A concentric bipolar stimulating electrode was placed appropriately either on the dorsal root or dorsal root entry zone to evoke postsynaptic potentials/currents in recorded cells (see FIG. 1). […] EPSPs/EPSCs were confirmed as monosynaptic on the basis of being characterised by a constant latency and rise-time with few failures.
Recordings were monitored on an oscilloscope and stored on digital audio tapes for later off-line analysis. In addition, data were low-pass filtered at 2-5 kHz, (1 kHz for voltage-clamp data), digitized at 2-10 kHz and stored on a PC running pCLAMP 10 data acquisition software (Axon Instruments). Analysis of electrophysiological data was carried out using Clampfit 10 software.

[2] = solubility in distilled water
dorsal horn neurones = assay: whole-cell patch clamp recording in spinal cord slices from Chung models of neuropathic pain: membrane properties of dorsal horn neurones; assay type: cell-based, rat; details: peptide 5 μM
Source text: as §1
The spinal nerve ligation model (Chung model) was first reported by Kim and Chung (1992; Pain, 50(3):355-63) and involves a single tight ligation of the L5 spinal nerve. […] This model has been used as a “gold standard” model for assessing the efficacy of novel compounds targeting neuropathic pain.
Adult male Sprague-Dawley rats, 8-9 weeks old, weighing 220-250 g at the time of surgery, were purchased from Charles River UK Ltd. The animals were housed in groups of 4 in an air-conditioned room on a 12-hour light/dark cycle. Food and water were available ad libitum. They were allowed to acclimatise to the experimental environment for three days by leaving them on a raised metal mesh for at least 40 min. The baseline paw withdrawal threshold (PWT) was examined using a series of graduated von Frey hairs for 3 consecutive days before surgery and re-assessed on the 6th to 8th day after surgery and on the 12th to 14th day after surgery before drug dosing. Each rat was anaesthetized with 5% isoflurane mixed with oxygen (2L per min) followed by an intramuscular (i.m.) injection of ketamine 90 mg/kg plus xylazine 10 mg/kg. The back was shaved and sterilized with povidone-iodine. The animal was placed in a prone position and a para-medial incision was made on the skin covering the L4-6 level. The L5 spinal nerve was carefully isolated and tightly ligated with 6/0 silk suture. The wound was then closed in layers after a complete hemostasis. A single dose of antibiotics (Amoxipen, 15 mg/rat, i.p.) was routinely given for prevention of infection after surgery. The animals were placed in a temperature-controlled recovery chamber until fully awake before being returned to their home cages.
as §2, §3
Whole-cell recordings were performed at 34-35° C. from Lamina I or II neurones in the dorsal horn of the spinal cord slices using Axopatch 1D and/or Multiclamp 700B amplifies and using the “blind” version of the patch-clamp technique. […]

CRIVYDSNCG [LAT7774]
effect on dorsal root-evoked EPSPs / excitatory synaptic transmission (in words) [1]: no effect on dorsal root evoked (0.1 Hz) EPSPs in 4 neurones; also recorded: minor reduction in two; also recorded: increased EPSPs in one; also recorded: both facilitating and inhibiting these inputs; also recorded: small decrease in EPSPs; also recorded: lack of effect; also recorded: increase in EPSPs | solubility in distilled water [2]: soluble | effect on inward rectification (in words) (dorsal horn neurones): changes in inward rectification | effect on membrane potential / postsynaptic membrane properties (in words) (dorsal horn neurones): little effect on a further 2 dorsal horn neurones; also recorded: hyperpolarisation; also recorded: depolarisation | Input Resistance, mean in presence of peptide (dorsal horn neurones; all cells): 294.0±62.2 MΩ and 294.0 MΩ | Membrane Potential, mean in presence of peptide (dorsal horn neurones; all cells, ipsilateral to injury): −59.8±3.6 mV and −59.8 mV | Normalised Input Resistance, mean in presence of peptide (dorsal horn neurones; control = 100): 121.2 | Normalised Input Resistance, ΔIR (dorsal horn neurones; control = 100): −21.2 | reversal potential of peptide-induced response (intersection of VI relations) (dorsal horn neurones; individual neurones): around −100 mV and ~−65 mV and around −80 mV and ~−85 mV and around −95 mV and around −55 mV and around −85 mV | Normalised Membrane Potential, mean in presence of peptide (dorsal horn neurones; rest = 100): 100.9 | Normalised Membrane Potential, ΔVm (dorsal horn neurones; rest = 100): −0.9
